Data on nine compounds can be found in PubChem BioAssay (NCI).

Test systems include HCT-15 colon; HL-60(TB) leukemia; LOX IMVI melanoma; MOLT-4 leukemia; OVCAR-3 ovarian; OVCAR-5 ovarian; SF-295 CNS; SK-MEL-28 melanoma; SK-MEL-5 melanoma; U251 CNS.
Assay in all cases: NCI-60 cell line screen, 48 h

Values joined by “and” are separate entries in the source; they are usually repeats but may differ in a detail not shown here. Equal entries are not always repeated.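 Grown in 96-well plates, cells were treated for 48 hours with each compound at five concentrations. Insufficient inhibition: endpoint recorded as highest concentration tested. GI50: concentration for 50% inhibition of growth. TGI is the concentration that stops growth completely.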 A value given as a limit tells only on which side of the number the result lay.

Consider `CC(=O)NC1C(OCc2ccccc2)OC(COC(=O)CCCCCCCCCCNC(=O)CCNc2ccc([N+](=O)[O-])c3[nH]c4ccc(O)cc4c(=O)c23)C(O)C1OC(C)C(=O)N[C@H](C(=O)N[C@H](CCC(=O)O)C(N)=O)C(C)C` (some centres undefined), for which the TGI in the assay with HCT-15 colon was greater than 100 µM; in the assay with HL-60(TB) leukemia, greater than 100 µM; in the assay on LOX IMVI melanoma, 89.2 µM; in the assay with MOLT-4 leukemia, greater than 100 µM; with OVCAR-3 ovarian, greater than 100 µM; in the assay on OVCAR-5 ovarian, greater than 100 µM. Also, the TGI with SF-295 CNS, in the assay on SK-MEL-28 melanoma, in the assay on SK-MEL-5 melanoma and in the assay on U251 CNS was greater than 100 µM throughout.

`Nc1nc(N)c(N=Nc2ccc([As](=O)(O)O)c(O)c2)c(N)n1`: the TGI in the assay on HCT-15 colon was greater than 100 µM; in the assay with HL-60(TB) leukemia, 13.2 µM; in the assay with LOX IMVI melanoma it was greater than 100 µM; with MOLT-4 leukemia it was greater than 48.3 µM; in the assay with OVCAR-3 ovarian, greater than 64.2 µM; in the assay on OVCAR-5 ovarian, greater than 100 µM. Further, the TGI with SF-295 CNS, in the assay with SK-MEL-28 melanoma, in the assay with SK-MEL-5 melanoma and in the assay with U251 CNS was greater than 100 µM each time.

In the case of `CN(CC(=O)O)Cc1c[nH]c2ccccc12`, the TGI with HCT-15 colon, with HL-60(TB) leukemia, in the assay with LOX IMVI melanoma, in the assay on MOLT-4 leukemia, with OVCAR-3 ovarian and with OVCAR-5 ovarian was greater than 100 µM each time. For the same compound, the TGI in the assay with SF-295 CNS, in the assay with SK-MEL-28 melanoma, in the assay with SK-MEL-5 melanoma and in the assay with U251 CNS was greater than 100 µM each time.

As for `COc1ccc(S(=O)(=O)Nc2c(/C=C\c3cc(OC)c(OC)c(OC)c3)ccc(OC)c2O)cc1OC`, the GI50 is 0.308 µM in the assay with HCT-15 colon; 0.338 µM in the assay on HL-60(TB) leukemia; 0.294 µM in the assay on LOX IMVI melanoma; 0.44 µM in the assay on MOLT-4 leukemia; 0.21 µM with OVCAR-3 ovarian; 0.751 µM in the assay on OVCAR-5 ovarian. Besides, the GI50 is 0.242 µM in the assay on SF-295 CNS, 1.74 µM in the assay on SK-MEL-28 melanoma, 0.0985 µM in the assay on SK-MEL-5 melanoma and 0.365 µM in the assay on U251 CNS. Moreover, the TGI in the assay with HCT-15 colon, with HL-60(TB) leukemia, in the assay with LOX IMVI melanoma, in the assay with MOLT-4 leukemia, in the assay with OVCAR-5 ovarian and with SF-295 CNS was greater than 100 µM throughout. For the same compound, the results for the TGI in the assay with SK-MEL-28 melanoma, in the assay on SK-MEL-5 melanoma and in the assay on U251 CNS were greater than 100 µM, 0.435 µM and greater than 100 µM, respectively.

As for `COc1ccc(/C=N/C2=C(C#N)C(c3ccccc3)c3ccc4ccccc4c3O2)cc1` (centres undefined), the GI50 with HCT-15 colon was 0.509 µM; in the assay on HL-60(TB) leukemia, 0.321 µM; in the assay with LOX IMVI melanoma, 0.587 µM; in the assay with MOLT-4 leukemia, 0.516 µM; in the assay with OVCAR-3 ovarian, 0.343 µM; in the assay with OVCAR-5 ovarian, 0.885 µM. Also, the GI50 in the assay on SF-295 CNS is 0.314 µM; in the assay on SK-MEL-28 melanoma it was 1.37 µM; with SK-MEL-5 melanoma, 0.336 µM; in the assay with U251 CNS, 0.457 µM. The TGI with HCT-15 colon was greater than 100 µM; with HL-60(TB) leukemia, 1.44 µM; in the assay on LOX IMVI melanoma, greater than 51.4 µM; in the assay with MOLT-4 leukemia, greater than 100 µM; in the assay with OVCAR-3 ovarian, greater than 100 µM; in the assay with OVCAR-5 ovarian, greater than 100 µM. The TGI in the assay with SF-295 CNS is greater than 100 µM; in the assay on SK-MEL-28 melanoma, greater than 100 µM; in the assay on SK-MEL-5 melanoma it was 7.95 µM; with U251 CNS it was greater than 100 µM.

As to `Nc1c(S(=O)(=O)O)cc2c(c1Cl)C(=O)c1ccccc1C2=O`, the GI50 in the assay with HCT-15 colon, with HL-60(TB) leukemia, in the assay with LOX IMVI melanoma, in the assay on MOLT-4 leukemia, in the assay on OVCAR-3 ovarian and with OVCAR-5 ovarian was greater than 100 µM in each case. The GI50 in the assay with SF-295 CNS, with SK-MEL-28 melanoma, in the assay on SK-MEL-5 melanoma and in the assay with U251 CNS was greater than 100 µM in each case. Also, the TGI in the assay on HCT-15 colon, in the assay on HL-60(TB) leukemia, in the assay on LOX IMVI melanoma, with MOLT-4 leukemia, in the assay with OVCAR-3 ovarian and in the assay with OVCAR-5 ovarian was greater than 100 µM in each case. Besides, the TGI in the assay with SF-295 CNS, in the assay with SK-MEL-28 melanoma, with SK-MEL-5 melanoma and in the assay with U251 CNS was greater than 100 µM throughout.

Consider `N[C@@H](Cc1ccc(N(CCCl)CCCl)cc1)C(=O)O`, for which the GI50 with HCT-15 colon was 19.4 µM and 21 µM; in the assay with HL-60(TB) leukemia, 6.96 µM; in the assay on LOX IMVI melanoma, 6.5 µM and 11.9 µM; in the assay on MOLT-4 leukemia it was 3.43 µM and 1.45 µM; in the assay with OVCAR-3 ovarian, 22.5 µM and 10.4 µM; with OVCAR-5 ovarian, 19.1 µM. The GI50 with SF-295 CNS is 3.95 µM and 16 µM; with SK-MEL-28 melanoma, 68.2 µM and 27.3 µM; in the assay on SK-MEL-5 melanoma, 27 µM and 18.4 µM; with U251 CNS, 16.1 µM and 11.9 µM. For the same compound, the TGI was > 100 µM and 54.9 µM and 133 µM in the assay with HCT-15 colon; 11.6 µM and 33 µM in the assay with HL-60(TB) leukemia; > 100 µM and 57.2 µM and 96.3 µM with LOX IMVI melanoma; 20.6 µM and 24.5 µM and 52.6 µM in the assay on MOLT-4 leukemia; 55.3 µM and 26.3 µM and 105 µM with OVCAR-3 ovarian; > 100 µM and 64.7 µM and 140 µM in the assay on OVCAR-5 ovarian. In addition, the TGI was 49.2 µM and 72.1 µM and 128 µM in the assay on SF-295 CNS; > 100 µM and 73.5 µM and 165 µM in the assay on SK-MEL-28 melanoma; > 100 µM and 40 µM and 88 µM with SK-MEL-5 melanoma; > 100 µM and 31.7 µM and 121 µM with U251 CNS.

For `CC1(C)OC(=O)C(c2ccsc2)C(=O)O1`, the TGI in the assay on HCT-15 colon, in the assay on HL-60(TB) leukemia, in the assay with LOX IMVI melanoma, with MOLT-4 leukemia, in the assay on OVCAR-3 ovarian and with OVCAR-5 ovarian was greater than 100 µM throughout. The TGI in the assay on SF-295 CNS, in the assay on SK-MEL-28 melanoma, in the assay on SK-MEL-5 melanoma and in the assay with U251 CNS was greater than 100 µM each time.

As to `O=c1cc(/C=C/c2ccccc2)c2ccc(O/C(=C\c3ccccc3)c3nc4ccccc4c(=O)o3)cc2o1`, the TGI in the assay with HCT-15 colon is greater than 100 µM; with HL-60(TB) leukemia, 45.5 µM; in the assay with LOX IMVI melanoma, greater than 100 µM; in the assay with MOLT-4 leukemia, 74.3 µM; in the assay on OVCAR-3 ovarian, 81.1 µM; in the assay on OVCAR-5 ovarian it was greater than 100 µM. Also, the TGI in the assay with SF-295 CNS is greater than 100 µM; with SK-MEL-28 melanoma, 34.5 µM; with SK-MEL-5 melanoma, 41 µM; in the assay with U251 CNS, greater than 100 µM.
